Experiments:
human SGLT2 = target: T1, human SGLT2 (Homo sapiens, UniProt P31639, I433V); assay: Assay for inhibitory effect on human SGLT2 activity (uptake of methyl-α-D-glucopyranoside); type: cell-based; conditions: for IC50: COS-7 cells expressing transiently human SGLT2, uptake of methyl-α-D-(U-14C)glucopyranoside, 37° C., 2 hours
T1 construct: expressed in transfected cells; host or cells: COS-7 cells (RIKEN CELL BANK RCB0539), transient, electroporation of KL29
T1 sequence (P31639 1-672 I433V): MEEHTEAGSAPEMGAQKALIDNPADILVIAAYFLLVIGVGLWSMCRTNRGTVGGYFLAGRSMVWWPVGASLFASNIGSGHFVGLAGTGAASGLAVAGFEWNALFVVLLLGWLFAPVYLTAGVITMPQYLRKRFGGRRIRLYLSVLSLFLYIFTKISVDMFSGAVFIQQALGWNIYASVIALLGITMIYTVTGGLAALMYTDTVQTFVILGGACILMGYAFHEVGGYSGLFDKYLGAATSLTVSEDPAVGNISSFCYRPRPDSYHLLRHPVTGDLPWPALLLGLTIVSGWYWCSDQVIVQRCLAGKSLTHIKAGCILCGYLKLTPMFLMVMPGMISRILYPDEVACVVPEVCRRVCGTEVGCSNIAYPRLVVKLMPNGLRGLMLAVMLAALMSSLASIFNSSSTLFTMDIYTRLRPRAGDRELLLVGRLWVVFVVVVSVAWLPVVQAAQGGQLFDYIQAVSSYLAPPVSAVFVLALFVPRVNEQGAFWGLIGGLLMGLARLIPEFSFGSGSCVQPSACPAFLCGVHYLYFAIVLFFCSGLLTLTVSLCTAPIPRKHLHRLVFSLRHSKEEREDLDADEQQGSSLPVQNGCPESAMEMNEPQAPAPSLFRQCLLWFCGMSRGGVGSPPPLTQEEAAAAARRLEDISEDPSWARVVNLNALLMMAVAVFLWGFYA
Method: • Assay for Inhibitory Effect on Human SGLT2 Activity • 1) Construction of the Plasmid Vector Expressing Human SGLT2
Preparation of the cDNA library for PCR amplification was performed by reverse transcription of a total RNA deprived from human kidney (Ori gene) with oligo dT as the primer, using SUPERSCRIPT Preamplification System (Gibco-BRL: LIFE TECHNOLOGIES). The DNA fragment coding for human SGLT2 was amplified by the PCR reaction, in which the human kidney cDNA library described above was used as the template and the following oligo nucleotides 0702F and 0712R, presented as Sequence Numbers 1 and 2 respectively, were used as the primers. The amplified DNA fragment was ligated into pCR-Blunt (Invitrogen), a vector for cloning, according to standard method of the kit. The Escherichia coli HB101 was transformed according to usual method and then selection of the transformants was performed on the LB agar medium containing 50 μg/mL of kanamycin. After plasmid DNA was extracted and purified from the one of the transformants, amplifying of the DNA fragment coding for human SGLT2 was performed by the PCR reaction, in which the following oligo nucleotides 0714F and 0715R, presented as Sequence Numbers 3 and 4 respectively, were used as the primers. The amplified DNA fragment was digested with restriction enzymes, Xho I and Hind III, and then purified with Wizard Purification System (Promega). This purified DNA fragment was inserted at the corresponding restriction sites of pcDNA3.1 (−) Myc/His—B (Invitrogen), a vector for expressing of fusion protein. The Escherichia coli HB101 was transformed according to usual method and then selection of the transformant was performed on the LB agar medium containing 100 μg/mL of ampicillin. After plasmid DNA was extracted and purified from this transformant, the base sequence of the DNA fragment inserted at the multi-cloning sites of the vector pcDNA3. 1 (−) Myc/His—B was analyzed. […] Sequentially, a clone in which valine is substituted for isoleucine-433 was obtained. This plasmid vector expressing human SGLT2 in which the peptide presented as Sequence Number 5 is fused to the carboxyl terminal alanine residue was designated KL29.
• 2) Preparation of the Cells Expressing Transiently Human SGLT2
KL29, the plasmid coding human SGLT2, was transfected into COS-7 cells (RIKEN CELL BANK RCB0539) by electroporation. Electroporation was performed with EC100 Electroporater (E-C APPARATUS CORPORATION) under the condition: 400 V, 1260 μF, 3.2×10^6 cells of COS-7 cell and 20 μg of KL29 in 800 μL of OPTI-MEM I medium (Gibco-BRL: LIFE TECHNOLOGIES) in the 0.4 cm type cuvette. After the gene transfer, the cells were harvested by centrifugation and resuspended with OPTI-MEM I medium (3.2 mL/cuvette). […]

[1] = normal mice; J. Med. Chem., Vol. 39, pp. 3920-3928 (1996); cited from earlier work

IC50 (human SGLT2)	SMILES	inhibitory activity in human SGLT2 (human SGLT2; statement in words)	amount of excreted glucose [1]
200 nM	Cc1c(Cc2ccc(OC(C)C)cc2)c(O[C@@H]2O[C@H](CO)[C@@H](O)[C@H](O)[C@H]2O)nn1-c1ccccc1 [Example 20, 3-(β-D-Glucopyranosyloxy)-4-[(4-isopropoxyphenyl)methyl]-5-methyl-1-phenyl-1H-pyrazole]	–	–
270 nM	CCc1ccc(Cc2c(O[C@@H]3O[C@H](CO)[C@@H](O)[C@H](O)[C@H]3O)nn(-c3ccccc3)c2C)cc1 [Example 18, 4-[(4-Ethylphenyl)methyl]-3-(β-D-glucopyranosyloxy)-5-methyl-1-phenyl-1H-pyrazole]	–	–

SMILES	IC50 (human SGLT2)	inhibitory activity in human SGLT2 (human SGLT2; statement in words)	amount of excreted glucose [1]
CSc1ccc(Cc2c(C(F)(F)F)[nH][nH]c2=O)cc1 [WAY-123783]	> 100000 nM	extremely weak	increased
